Experimental data as given in PMC5218480 (PLoS ONE, 2017).

System: MV-4-11 cells
Assay: Gene expression microarray analysis (Affymetrix PrimeView) and GSEA
Type: cell-based, human
Set-up: RFU PODN (11730768_x_at) / Fold change /veh PODN (11730768_x_at) / RFU LINC00158 (11744669_a_at) / Fold change /veh LINC00158 (11744669_a_at) / RFU DUSP10 (11751237_a_at) / Fold change /veh DUSP10 (11751237_a_at) / RFU ID3 (11757404_x_at) / Fold change /veh ID3 (11757404_x_at) / RFU PLEKHG5 (11737974_s_at) / Fold change /veh PLEKHG5 (11737974_s_at) / RFU LRRC4B (11730491_at) / Fold change /veh LRRC4B (11730491_at) / RFU GIMAP4 (11747438_a_at) / Fold change /veh GIMAP4 (11747438_a_at) / RFU KRT8 (11758183_x_at) / Fold change /veh KRT8 (11758183_x_at) / RFU CNN1 (11734310_a_at) / Fold change /veh CNN1 (11734310_a_at) / RFU VPS37D (11726825_at) / Fold change /veh VPS37D (11726825_at) / RFU C10orf10 (11716522_x_at) / Fold change /veh C10orf10 (11716522_x_at) / RFU KIR2DL2 /// KIR2DL4 /// KIR2DL5A /// KIR2DL5B /// KIR2DS1 /// KIR2DS2 /// KIR2DS3 /// KIR2DS4 /// KIR3DL3 /// KIR3DL3 /// KIR3DS1 (11738374_at) / Fold change /veh KIR2DL2 /// KIR2DL4 /// KIR2DL5A /// KIR2DL5B /// KIR2DS1 /// KIR2DS2 /// KIR2DS3 /// KIR2DS4 /// KIR3DL3 /// KIR3DL3 /// KIR3DS1 (11738374_at) / RFU C1QL1 (11718748_at) / Fold change /veh C1QL1 (11718748_at) / RFU TMPRSS4 (11747572_a_at) / Fold change /veh TMPRSS4 (11747572_a_at) / RFU HAMP (11756126_x_at) / Fold change /veh HAMP (11756126_x_at) / RFU RNFT2 (11725882_a_at) / Fold change /veh RNFT2 (11725882_a_at) / RFU NR4A2 (11747474_a_at) / Fold change /veh NR4A2 (11747474_a_at) / RFU ABCC12 (11746883_a_at) / Fold change /veh ABCC12 (11746883_a_at) / RFU TMEM136 (11760407_x_at) / Fold change /veh TMEM136 (11760407_x_at) / RFU CLDN22 /// WWC2 (11732394_at) / Fold change /veh CLDN22 /// WWC2 (11732394_at) / RFU HLA-DPB1 (11760878_x_at) / Fold change /veh HLA-DPB1 (11760878_x_at) / RFU SPINT1 (11716480_a_at) / Fold change /veh SPINT1 (11716480_a_at) / RFU GAP43 (11754022_s_at) / Fold change /veh GAP43 (11754022_s_at) / RFU A4GNT (11735810_at) / Fold change /veh A4GNT (11735810_at) / RFU PRB3 (11715151_x_at) / Fold change /veh PRB3 (11715151_x_at) / RFU TUBB4B (11761932_at) / Fold change /veh TUBB4B (11761932_at) / RFU CAPN14 (11732068_a_at) / Fold change /veh CAPN14 (11732068_a_at) / RFU TMCC2 (11721928_a_at) / Fold change /veh TMCC2 (11721928_a_at) / RFU IRGQ (11745062_a_at) / Fold change /veh IRGQ (11745062_a_at) / RFU FAM174B (11720279_a_at) / Fold change /veh FAM174B (11720279_a_at) / RFU TMPRSS4 (11748680_a_at) / Fold change /veh TMPRSS4 (11748680_a_at) / RFU FAM212B (11763350_a_at) / Fold change /veh FAM212B (11763350_a_at) / RFU PLEKHG5 (11743358_a_at) / Fold change /veh PLEKHG5 (11743358_a_at) / RFU ZSCAN30 (11745921_a_at) / Fold change /veh ZSCAN30 (11745921_a_at) / RFU CMKLR1 (11741424_a_at) / Fold change /veh CMKLR1 (11741424_a_at) / RFU LOC101060620 /// MAPK8IP1 (11723275_at) / Fold change /veh LOC101060620 /// MAPK8IP1 (11723275_at) / RFU SPTSSB (11747773_x_at) / Fold change /veh SPTSSB (11747773_x_at) / RFU PRSS12 (11739890_at) / Fold change /veh PRSS12 (11739890_at) / RFU BIN1 (11741810_x_at) / Fold change /veh BIN1 (11741810_x_at) / RFU WNT11 (11732464_a_at) / Fold change /veh WNT11 (11732464_a_at) / RFU C10orf10 (11716521_a_at) / Fold change /veh C10orf10 (11716521_a_at) / RFU C5orf56 (11738089_at) / Fold change /veh C5orf56 (11738089_at) / RFU CYB561 (11721691_x_at) / Fold change /veh CYB561 (11721691_x_at) / RFU ANKRD19P (11752326_a_at) / Fold change /veh ANKRD19P (11752326_a_at) / RFU OR2T12 /// OR2T33 /// OR2T8 (11738714_s_at) / Fold change /veh OR2T12 /// OR2T33 /// OR2T8 (11738714_s_at) / RFU VCAN (11748164_a_at) / Fold change /veh VCAN (11748164_a_at) / RFU JSRP1 (11732532_at) / Fold change /veh JSRP1 (11732532_at) / RFU KRTAP10-11 (11738290_x_at) / Fold change /veh KRTAP10-11 (11738290_x_at) / RFU MYO3A (11730013_a_at) / Fold change /veh MYO3A (11730013_a_at) / RFU EBF3 (11725865_a_at) / Fold change /veh EBF3 (11725865_a_at) / RFU CAMK2N1 (11719241_x_at) / Fold change /veh CAMK2N1 (11719241_x_at) / RFU C5orf56 (11738088_a_at) / Fold change /veh C5orf56 (11738088_a_at) / RFU OLFML3 (11715873_a_at) / Fold change /veh OLFML3 (11715873_a_at) / RFU LOC100653217 /// NTM (11731650_a_at) / Fold change /veh LOC100653217 /// NTM (11731650_a_at) / RFU MAPK11 (11762145_a_at) / Fold change /veh MAPK11 (11762145_a_at) / RFU FIZ1 (11724087_x_at) / Fold change /veh FIZ1 (11724087_x_at) / RFU OASL (11726364_x_at) / Fold change /veh OASL (11726364_x_at) / RFU SOX15 (11748057_x_at) / Fold change /veh SOX15 (11748057_x_at) / RFU CD79A (11719716_a_at) / Fold change /veh CD79A (11719716_a_at) / RFU HIST1H1D (11736915_at) / Fold change /veh HIST1H1D (11736915_at) / RFU CASKIN2 (11723855_a_at) / Fold change /veh CASKIN2 (11723855_a_at) / RFU LOC730098 (11760151_x_at) / Fold change /veh LOC730098 (11760151_x_at) / RFU OR4N2 (11742367_at) / Fold change /veh OR4N2 (11742367_at) / RFU PRRT2 (11749266_a_at) / Fold change /veh PRRT2 (11749266_a_at) / RFU SNX32 (11753110_a_at) / Fold change /veh SNX32 (11753110_a_at) / RFU CDHR5 (11726645_a_at) / Fold change /veh CDHR5 (11726645_a_at) / RFU RCAN1 (11760418_a_at) / Fold change /veh RCAN1 (11760418_a_at) / RFU FAM167A (11723789_a_at) / Fold change /veh FAM167A (11723789_a_at) / RFU FAM26E (11764081_at) / Fold change /veh FAM26E (11764081_at) / RFU ISYNA1 (11749810_s_at) / Fold change /veh ISYNA1 (11749810_s_at) / RFU ACY1 (11761880_at) / Fold change /veh ACY1 (11761880_at) / RFU 11764098_at / Fold change /veh 11764098_at / RFU SAMD14 (11745864_x_at) / Fold change /veh SAMD14 (11745864_x_at) / RFU NPB (11741838_a_at) / Fold change /veh NPB (11741838_a_at) / RFU TMPRSS6 (11731388_a_at) / Fold change /veh TMPRSS6 (11731388_a_at) / RFU KRTAP10-2 (11738614_at) / Fold change /veh KRTAP10-2 (11738614_at) / RFU ARHGAP8 /// PRR5-ARHGAP8 (11727945_x_at) / Fold change /veh ARHGAP8 /// PRR5-ARHGAP8 (11727945_x_at) / RFU KRTAP5-7 /// NADSYN1 (11734609_at) / Fold change /veh KRTAP5-7 /// NADSYN1 (11734609_at) / RFU RASL12 (11751679_a_at) / Fold change /veh RASL12 (11751679_a_at) / RFU CDKN2B (11736163_a_at) / Fold change /veh CDKN2B (11736163_a_at) / RFU PRF1 (11729649_at) / Fold change /veh PRF1 (11729649_at) / RFU, ZNF638 /// ZNF638-IT1 / Fold change vs veh, ZNF638 /// ZNF638-IT1 / RFU, PANK3 / Fold change vs veh, PANK3 / RFU, SH3YL1 / Fold change vs veh, SH3YL1 / RFU, ZEB2 / Fold change vs veh, ZEB2 / RFU, NRIP1 / Fold change vs veh, NRIP1 / RFU, PTTG1IP / Fold change vs veh, PTTG1IP / RFU, CAPN2 / Fold change vs veh, CAPN2 / RFU, MED14 / Fold change vs veh, MED14 / RFU, SNORA58 / Fold change vs veh, SNORA58 / RFU, C1orf63 / Fold change vs veh, C1orf63 / RFU, LRRFIP1 / Fold change vs veh, LRRFIP1 / RFU, NDUFAF7 / Fold change vs veh, NDUFAF7 / RFU, SLC12A2 / Fold change vs veh, SLC12A2 / RFU, IBTK / Fold change vs veh, IBTK / RFU, ESF1 / Fold change vs veh, ESF1 / Fold change vs veh, TMEM50B / RFU, TAOK1 / Fold change vs veh, TAOK1 / RFU, ACBD3 / Fold change vs veh, ACBD3 / RFU, TMA16 / Fold change vs veh, TMA16 / RFU, RWDD3 / Fold change vs veh, RWDD3 / RFU, BCAT1 / Fold change vs veh, BCAT1 / RFU, EDEM3 / Fold change vs veh, EDEM3 / RFU, TMEM33 / Fold change vs veh, TMEM33 / RFU, WDR75 / Fold change vs veh, WDR75 / RFU, AHCTF1 / Fold change vs veh, AHCTF1 / RFU, TFRC / Fold change vs veh, TFRC / RFU, ZDHHC17 / Fold change vs veh, ZDHHC17 / RFU, NOM1 / Fold change vs veh, NOM1 / RFU, ARL8B / Fold change vs veh, ARL8B / RFU, ZBTB11 / Fold change vs veh, ZBTB11 / RFU, TAMM41 / Fold change vs veh, TAMM41 / RFU, KIAA1704 /// LOC100996395 / Fold change vs veh, KIAA1704 /// LOC100996395 / RFU, ING1 / Fold change vs veh, ING1 / RFU, TRMT61B / Fold change vs veh, TRMT61B / RFU, FUBP3 / Fold change vs veh, FUBP3 / RFU, TP53 / Fold change vs veh, TP53 / RFU, TNKS2 / Fold change vs veh, TNKS2 / RFU, ZFP14 / Fold change vs veh, ZFP14 / RFU, ACTR2 / Fold change vs veh, ACTR2 / RFU, PPP3R1 / Fold change vs veh, PPP3R1 / RFU, PIK3R1 / Fold change vs veh, PIK3R1 / RFU, HNRNPA1 / Fold change vs veh, HNRNPA1 / RFU, RNF170 / Fold change vs veh, RNF170 / RFU, ZNF28 / Fold change vs veh, ZNF28 / RFU, RNGTT / Fold change vs veh, RNGTT / RFU, OGT / Fold change vs veh, OGT / RFU, BRD1 / Fold change vs veh, BRD1 / RFU, MARS / Fold change vs veh, MARS / RFU, ZNF655 / Fold change vs veh, ZNF655 / RFU, FAHD1 / Fold change vs veh, FAHD1 / RFU, BDP1 / Fold change vs veh, BDP1 / RFU, LRRCC1 / Fold change vs veh, LRRCC1 / RFU, ARID1A / Fold change vs veh, ARID1A / RFU, ZNF146 / Fold change vs veh, ZNF146 / RFU, ZNF330 / Fold change vs veh, ZNF330 / RFU, GPN3 / Fold change vs veh, GPN3 / RFU, C9orf123 / Fold change vs veh, C9orf123 / RFU, N4BP2L2 / Fold change vs veh, N4BP2L2 / RFU, ARFIP1 / Fold change vs veh, ARFIP1 / RFU, FAM179B / Fold change vs veh, FAM179B / RFU, BCL10 / Fold change vs veh, BCL10 / RFU, UHRF1BP1L / Fold change vs veh, UHRF1BP1L / RFU, BET1 / Fold change vs veh, BET1 / RFU, CNOT2 / Fold change vs veh, CNOT2 / RFU, ZNF268 / Fold change vs veh, ZNF268 / Fold change vs veh, ZNF507 / RFU, DGCR2 / Fold change vs veh, DGCR2 / RFU, WDSUB1 / Fold change vs veh, WDSUB1 / Fold change vs veh, HSP90B1 /// MIR3652 / RFU, ADSS / Fold change vs veh, ADSS / RFU, GK / Fold change vs veh, GK / RFU, ZNF148 / Fold change vs veh, ZNF148 / RFU, TAF9 / Fold change vs veh, TAF9 / RFU, SLC1A5 / Fold change vs veh, SLC1A5 / RFU, SLMO2 / Fold change vs veh, SLMO2 / RFU, ABCC4 / Fold change vs veh, ABCC4 / RFU, LOC101060439 /// RAP1B / Fold change vs veh, LOC101060439 /// RAP1B / RFU, RFX7 / Fold change vs veh, RFX7 / RFU, GTPBP10 / Fold change vs veh, GTPBP10 / RFU, CNEP1R1 / Fold change vs veh, CNEP1R1 / RFU, BIVM-ERCC5 /// ERCC5 / Fold change vs veh, BIVM-ERCC5 /// ERCC5 / RFU, ILF3 / Fold change vs veh, ILF3 / RFU 11762660_at / Fold change /veh 11762660_at / RFU VCAN (11757783_s_at) / Fold change /veh VCAN (11757783_s_at) / RFU DDX43 (11728927_at) / Fold change /veh DDX43 (11728927_at) / RFU KRT8 (11758188_x_at) / Fold change /veh KRT8 (11758188_x_at) / RFU NKD1 (11759106_at) / Fold change /veh NKD1 (11759106_at) / RFU SRD5A1 (11742802_a_at) / Fold change /veh SRD5A1 (11742802_a_at) / RFU TPSAB1 /// TPSB2 (11721975_s_at) / Fold change /veh TPSAB1 /// TPSB2 (11721975_s_at) / RFU GSTM3 (11746129_a_at) / Fold change /veh GSTM3 (11746129_a_at) / RFU IL23R (11737362_x_at) / Fold change /veh IL23R (11737362_x_at) / RFU TMEM51 (11727254_a_at) / Fold change /veh TMEM51 (11727254_a_at) / RFU PIWIL2 (11732686_x_at) / Fold change /veh PIWIL2 (11732686_x_at) / RFU ORM1 (11744905_x_at) / Fold change /veh ORM1 (11744905_x_at) / RFU CCDC152 (11743942_at) / Fold change /veh CCDC152 (11743942_at) / RFU ECM1 (11717891_a_at) / Fold change /veh ECM1 (11717891_a_at) / RFU IL23R (11748794_a_at) / Fold change /veh IL23R (11748794_a_at) / RFU TNFAIP8L3 (11732012_x_at) / Fold change /veh TNFAIP8L3 (11732012_x_at) / RFU MBOAT4 (11741988_at) / Fold change /veh MBOAT4 (11741988_at) / RFU 11764193_at / Fold change /veh 11764193_at / RFU TMEM53 (11763286_at) / Fold change /veh TMEM53 (11763286_at) / RFU MAGEB2 (11727129_at) / Fold change /veh MAGEB2 (11727129_at) / RFU TMEM200A (11744735_a_at) / Fold change /veh TMEM200A (11744735_a_at) / RFU CCDC152 (11751479_a_at) / Fold change /veh CCDC152 (11751479_a_at) / RFU FAM211A (11726209_a_at) / Fold change /veh FAM211A (11726209_a_at) / RFU RGS16 (11746705_a_at) / Fold change /veh RGS16 (11746705_a_at) / RFU VCAN (11755009_s_at) / Fold change /veh VCAN (11755009_s_at) / RFU RHOB (11743442_s_at) / Fold change /veh RHOB (11743442_s_at) / RFU RGS16 (11720943_a_at) / Fold change /veh RGS16 (11720943_a_at) / RFU RGS16 (11720944_at) / Fold change /veh RGS16 (11720944_at) / RFU, VPS4B / Fold change vs veh, VPS4B / RFU, CREB1 / Fold change vs veh, CREB1 / RFU, DNAJC13 / Fold change vs veh, DNAJC13 / RFU, GNAQ / Fold change vs veh, GNAQ / RFU, CDK5R1 / Fold change vs veh, CDK5R1 / RFU, ZRANB3 / Fold change vs veh, ZRANB3 / RFU, CUL4A / Fold change vs veh, CUL4A / RFU, CCNY / Fold change vs veh, CCNY / RFU, UFL1 / Fold change vs veh, UFL1 / RFU, COG3 / Fold change vs veh, COG3 / RFU, DIAPH2 / Fold change vs veh, DIAPH2 / RFU, SKA2 / Fold change vs veh, SKA2 / RFU, AFF3 / Fold change vs veh, AFF3 / RFU, LMF1 / Fold change vs veh, LMF1 / RFU, IPO11 / Fold change vs veh, IPO11 / RFU, DFFB / Fold change vs veh, DFFB / RFU, FOXP1 / Fold change vs veh, FOXP1 / RFU, CARD8 / Fold change vs veh, CARD8 / RFU, STRN3 / Fold change vs veh, STRN3 / RFU, ADK / Fold change vs veh, ADK / RFU, RASSF2 / Fold change vs veh, RASSF2 / RFU, WIPF1 / Fold change vs veh, WIPF1 / RFU, LARP1B / Fold change vs veh, LARP1B / RFU, RASA1 / Fold change vs veh, RASA1 / RFU, RB1 / Fold change vs veh, RB1 / RFU, PPFIA1 / Fold change vs veh, PPFIA1 / RFU, MAT2A / Fold change vs veh, MAT2A / RFU, CCT5 / Fold change vs veh, CCT5 / RFU, WDR92 / Fold change vs veh, WDR92 / RFU, CUX1 / Fold change vs veh, CUX1 / RFU, TTC7A / Fold change vs veh, TTC7A / RFU, TMEM135 / Fold change vs veh, TMEM135 / RFU, DEPTOR / Fold change vs veh, DEPTOR / RFU, CPM / Fold change vs veh, CPM / RFU, DNAJB6 / Fold change vs veh, DNAJB6 / RFU, CACNA2D3 / Fold change vs veh, CACNA2D3 / RFU, DTX4 / Fold change vs veh, DTX4 / RFU, TFCP2 / Fold change vs veh, TFCP2 / RFU, GMCL1 /// GMCL1P1 / Fold change vs veh, GMCL1 /// GMCL1P1 / RFU, AEBP2 / Fold change vs veh, AEBP2 / RFU, SNHG1 /// SNORD22 /// SNORD25 /// SNORD26 /// SNORD27 /// SNORD28 /// SNORD29 /// SNORD31 / Fold change vs veh, SNHG1 /// SNORD22 /// SNORD25 /// SNORD26 /// SNORD27 /// SNORD28 /// SNORD29 /// SNORD31 / Fold change (Aza/veh), C12orf56 (ProbeSet 11735607_a_at) / Fold change (ACY-1035/veh), C12orf56 (ProbeSet 11735607_a_at) / Fold change (Aza/veh), FGFR1OP (ProbeSet 11751329_s_at) / Fold change (ACY-1035/veh), FGFR1OP (ProbeSet 11751329_s_at) / Fold change (Aza/veh), VPS36 (ProbeSet 11739960_a_at) / Fold change (ACY-1035/veh), VPS36 (ProbeSet 11739960_a_at) / RFU SYPL1 (11715823_x_at) / Fold change /veh SYPL1 (11715823_x_at) / RFU IGFBP7 (11715501_s_at) / Fold change /veh IGFBP7 (11715501_s_at) / RFU REEP3 (11722064_at) / Fold change /veh REEP3 (11722064_at) / RFU IGLL1 (11728026_x_at) / Fold change /veh IGLL1 (11728026_x_at): dose or concentration left out as unconfirmed
Conditions: ProbeSet 11717523_x_at; LIST B

Nc1ncn([C@@H]2O[C@H](CO)[C@@H](O)[C@H]2O)c(=O)n1 [azacitidine]
Fold change vs veh, TMEM50B: 0.85
